From PubChem BioAssay AID1918999 (Molecular Pharmacology Branch, DTP, NCI, 2023)
Several values for one entry are separate records, joined by “and”; a condition that tells them apart may be missing. Identical values can stand only once.

Test system: 556581-035-R-J1-PDC complex spheroid growth
Test: Anticancer human tumor 556581-035-R-J1-PDC patient-derived ovarian carcinoma cell line growth inhibition [AhR]
Conditions: for viability, T/C: stronger effect = lower value
Procedure, shortened: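 Agents were dosed in half-log steps down from roughly clinical Cmax, or from 10 microM where Cmax was unknown, alone and with AhR antagonists. Read-out: percent test/control growth of tumor spheroids containing HUVEC and MSC stromal cells.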

[1] = curve of first compound, second compound 0.1 µM
[2] = curve of first compound, second compound 0.316 µM
[3] = curve of first compound, second compound 1 µM
[4] = curve of first compound, second compound 3.16 µM
[5] = curve of first compound, second compound 10 µM
[6] = second compound 0.1 µM, first compound 0.0316 µM
[7] = second compound 0.1 µM, first compound 0.1 µM
[8] = second compound 0.1 µM, first compound 0.316 µM
[9] = second compound 0.1 µM, first compound 1 µM
[10] = second compound 0.1 µM, first compound 3.16 µM
[11] = second compound 0.1 µM, first compound 10 µM
[12] = second compound 0.316 µM, first compound 0.0316 µM
[13] = second compound 0.316 µM, first compound 0.1 µM
[14] = second compound 0.316 µM, first compound 0.316 µM
[15] = second compound 0.316 µM, first compound 1 µM
[16] = second compound 0.316 µM, first compound 3.16 µM
[17] = second compound 0.316 µM, first compound 10 µM
[18] = second compound 1 µM, first compound 0.0316 µM
[19] = second compound 1 µM, first compound 0.1 µM
[20] = second compound 1 µM, first compound 0.316 µM
[21] = second compound 1 µM, first compound 1 µM
[22] = second compound 1 µM, first compound 3.16 µM
[23] = second compound 1 µM, first compound 10 µM
[24] = second compound 3.16 µM, first compound 0.0316 µM
[25] = second compound 3.16 µM, first compound 0.1 µM
[26] = second compound 3.16 µM, first compound 0.316 µM
[27] = second compound 3.16 µM, first compound 1 µM
[28] = second compound 3.16 µM, first compound 3.16 µM
[29] = second compound 3.16 µM, first compound 10 µM
[30] = second compound 10 µM, first compound 0.0316 µM
[31] = second compound 10 µM, first compound 0.1 µM
[32] = second compound 10 µM, first compound 0.316 µM
[33] = second compound 10 µM, first compound 1 µM
[34] = second compound 10 µM, first compound 3.16 µM
[35] = second compound 10 µM, first compound 10 µM
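Throughout, for viability, T/C: compound exposure lasted 7 days; 100% = DMSO vehicle control growth.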

With `COc1ccc([C@@H](O)c2cc(-c3ncnc4cc(N5CCOCC5)ccc34)c(F)cc2Cl)nn1` + CC(CO)NC(=O)c1cc(-c2ccc(Cl)cc2)nn(-c2cnn(C)c2)c1=O the IC50 [1] was 5.38 µM, the IC50 [2] was 6.65 µM and the IC50 [3] was 7.72 µM. It also gave an IC50 [4] of over 10 µM, an IC50 [5] of over 10 µM and a viability, T/C [6] of 98%. It also gave a viability, T/C [7] of 105%, a viability, T/C [8] of 92.9% and a viability, T/C [9] of 69.7%. For the same compound, the viability, T/C [10] was 61%, the viability, T/C [11] was 41% and the viability, T/C [12] was 110%. For the same compound, the viability, T/C [13] was 108%, the viability, T/C [14] was 99.9% and the viability, T/C [15] was 69.5%. For the same compound, the viability, T/C [16] was 58.7%, the viability, T/C [17] was 45% and the viability, T/C [18] was 104%. For the same compound, the viability, T/C [19] was 117%, the viability, T/C [20] was 108% and the viability, T/C [21] was 91.1%. It also gave a viability, T/C [22] of 61.9%, a viability, T/C [23] of 46.4% and a viability, T/C [24] of 113%. For the same compound, the viability, T/C [25] was 112%, the viability, T/C [26] was 105% and the viability, T/C [27] was 85.3%. For the same compound, the viability, T/C [28] was 64.3%, the viability, T/C [29] was 51.7% and the viability, T/C [30] was 113%. The viability, T/C [31] was 110%, the viability, T/C [32] was 109% and the viability, T/C [33] was 82%. For the same compound, the viability, T/C [34] was 62.4% and the viability, T/C [35] was 53.2%.

`O=C(C=Cc1cccc(S(=O)(=O)Nc2ccccc2)c1)NO` was tested, and the viability, T/C (compound 0.0316 µM) was 104% and 98.7% and 101%, the viability, T/C (compound 0.1 µM) was 105% and 99.7% and 84.2% and the viability, T/C (compound 0.316 µM) was 85.4% and 76.4% and 76.7%. For the same compound, the viability, T/C (compound 1 µM) was 54.8% and 58.9% and 56.1%, the viability, T/C (compound 3.16 µM) was 25.9% and 28.1% and 21.8% and the viability, T/C (compound 10 µM) was 3.85% and 5.28% and 4.17%. For the same compound, the IC50 (curve of compound) was 1.25 µM and 1.33 µM and 1.11 µM.

Compound `O=C(C=Cc1cccc(S(=O)(=O)Nc2ccccc2)c1)NO` + CC(CO)NC(=O)c1cc(-c2ccc(Cl)cc2)nn(-c2cnn(C)c2)c1=O has an IC50 [1] of 1.18 µM, an IC50 [2] of 1.28 µM and an IC50 [3] of 1.47 µM. For the same compound, the IC50 [4] was 1.19 µM, the IC50 [5] was 1.08 µM and the viability, T/C [6] was 96.6%. For the same compound, the viability, T/C [7] was 88.9%, the viability, T/C [8] was 75.1% and the viability, T/C [9] was 53.6%. The viability, T/C [10] was 27.9%, the viability, T/C [11] was 3.75% and the viability, T/C [12] was 94%. It also gave a viability, T/C [13] of 91.2%, a viability, T/C [14] of 80.6% and a viability, T/C [15] of 56.2%. It also gave a viability, T/C [16] of 25.7%, a viability, T/C [17] of 3.23% and a viability, T/C [18] of 105%. The viability, T/C [19] was 96.8%, the viability, T/C [20] was 88% and the viability, T/C [21] was 63.6%. For the same compound, the viability, T/C [22] was 24.9%, the viability, T/C [23] was 2.84% and the viability, T/C [24] was 98.7%. For the same compound, the viability, T/C [25] was 93.7%, the viability, T/C [26] was 74.1% and the viability, T/C [27] was 54.1%. For the same compound, the viability, T/C [28] was 28.1%, the viability, T/C [29] was 3.83% and the viability, T/C [30] was 105%. The viability, T/C [31] was 104%, the viability, T/C [32] was 75.8% and the viability, T/C [33] was 53%. It also gave a viability, T/C [34] of 24.3% and a viability, T/C [35] of 4.22%.

For `CC[C@@]1(O)C(=O)OCc2c1cc1n(c2=O)Cc2cc3c(CN(C)C)c(O)ccc3nc2-1` + Cc1cncc(-c2nc(NCCc3c[nH]c4ccccc34)c3ncn(C(C)C)c3n2)c1, the IC50 [1] was over 0.1 µM, the IC50 [2] was over 0.1 µM and the IC50 [3] was over 0.1 µM. The IC50 [4] was over 0.1 µM, the IC50 [5] was over 0.1 µM and the viability, T/C (second compound 0.1 µM, first compound 0.000316 µM) was 114%. The viability, T/C (second compound 0.1 µM, first compound 0.001 µM) was 110%, the viability, T/C (second compound 0.1 µM, first compound 0.00316 µM) was 105% and the viability, T/C (second compound 0.1 µM, first compound 0.01 µM) was 97.6%. The viability, T/C [6] was 85%, the viability, T/C [7] was 64.3% and the viability, T/C (second compound 0.316 µM, first compound 0.000316 µM) was 108%. The viability, T/C (second compound 0.316 µM, first compound 0.001 µM) was 115%, the viability, T/C (second compound 0.316 µM, first compound 0.00316 µM) was 109% and the viability, T/C (second compound 0.316 µM, first compound 0.01 µM) was 97.4%. It also gave a viability, T/C [12] of 90.2%, a viability, T/C [13] of 62.3% and a viability, T/C (second compound 1 µM, first compound 0.000316 µM) of 117%. It also gave a viability, T/C (second compound 1 µM, first compound 0.001 µM) of 115%, a viability, T/C (second compound 1 µM, first compound 0.00316 µM) of 105% and a viability, T/C (second compound 1 µM, first compound 0.01 µM) of 95%. For the same compound, the viability, T/C [18] was 83.4%, the viability, T/C [19] was 57.9% and the viability, T/C (second compound 3.16 µM, first compound 0.000316 µM) was 95.3%. The viability, T/C (second compound 3.16 µM, first compound 0.001 µM) was 101%, the viability, T/C (second compound 3.16 µM, first compound 0.00316 µM) was 104% and the viability, T/C (second compound 3.16 µM, first compound 0.01 µM) was 101%. The viability, T/C [24] was 81.3%, the viability, T/C [25] was 62.6% and the viability, T/C (second compound 10 µM, first compound 0.000316 µM) was 99.8%. For the same compound, the viability, T/C (second compound 10 µM, first compound 0.001 µM) was 103%, the viability, T/C (second compound 10 µM, first compound 0.00316 µM) was 99.3% and the viability, T/C (second compound 10 µM, first compound 0.01 µM) was 88.1%. The viability, T/C [30] was 76.9% and the viability, T/C [31] was 67.2%.

Compound `CCN(c1cc(-c2ccc(CN3CCOCC3)cc2)cc(C(=O)NCc2c(C)cc(C)[nH]c2=O)c1C)C1CCOCC1` + Cc1ccccc1N=Nc1ccc(NC(=O)c2ccnn2C)c(C)c1 has an IC50 [1] of over 3 µM, an IC50 [2] of over 3 µM and an IC50 [3] of over 3 µM. The IC50 [4] was over 3 µM, the IC50 [5] was over 3 µM and the viability, T/C (second compound 0.1 µM, first compound 0.00949 µM) was 92%. The viability, T/C (second compound 0.1 µM, first compound 0.03 µM) was 97%, the viability, T/C (second compound 0.1 µM, first compound 0.0949 µM) was 85.8% and the viability, T/C (second compound 0.1 µM, first compound 0.3 µM) was 91.5%. For the same compound, the viability, T/C (second compound 0.1 µM, first compound 0.949 µM) was 90.9%, the viability, T/C (second compound 0.1 µM, first compound 3 µM) was 86.8% and the viability, T/C (second compound 0.316 µM, first compound 0.00949 µM) was 95.2%. The viability, T/C (second compound 0.316 µM, first compound 0.03 µM) was 98.2%, the viability, T/C (second compound 0.316 µM, first compound 0.0949 µM) was 88.9% and the viability, T/C (second compound 0.316 µM, first compound 0.3 µM) was 85.4%. The viability, T/C (second compound 0.316 µM, first compound 0.949 µM) was 86.2%, the viability, T/C (second compound 0.316 µM, first compound 3 µM) was 81.1% and the viability, T/C (second compound 1 µM, first compound 0.00949 µM) was 81.4%. The viability, T/C (second compound 1 µM, first compound 0.03 µM) was 85.6%, the viability, T/C (second compound 1 µM, first compound 0.0949 µM) was 88.4% and the viability, T/C (second compound 1 µM, first compound 0.3 µM) was 82.6%. It also gave a viability, T/C (second compound 1 µM, first compound 0.949 µM) of 82.4%, a viability, T/C (second compound 1 µM, first compound 3 µM) of 89.1% and a viability, T/C (second compound 3.16 µM, first compound 0.00949 µM) of 84.5%. It also gave a viability, T/C (second compound 3.16 µM, first compound 0.03 µM) of 88.1%, a viability, T/C (second compound 3.16 µM, first compound 0.0949 µM) of 87.6% and a viability, T/C (second compound 3.16 µM, first compound 0.3 µM) of 73.9%. The viability, T/C (second compound 3.16 µM, first compound 0.949 µM) was 91.8%, the viability, T/C (second compound 3.16 µM, first compound 3 µM) was 78% and the viability, T/C (second compound 10 µM, first compound 0.00949 µM) was 74.9%. The viability, T/C (second compound 10 µM, first compound 0.03 µM) was 90.3%, the viability, T/C (second compound 10 µM, first compound 0.0949 µM) was 83.8% and the viability, T/C (second compound 10 µM, first compound 0.3 µM) was 79%. It also gave a viability, T/C (second compound 10 µM, first compound 0.949 µM) of 77% and a viability, T/C (second compound 10 µM, first compound 3 µM) of 73.4%.

In the case of `CCN(c1cc(-c2ccc(CN3CCOCC3)cc2)cc(C(=O)NCc2c(C)cc(C)[nH]c2=O)c1C)C1CCOCC1`, the viability, T/C (compound 0.00949 µM) is reported as 98.6% and 100% and 96.3%, the viability, T/C (compound 0.03 µM) is reported as 110% and 102% and 118% and the viability, T/C (compound 0.0949 µM) is reported as 97.2% and 104% and 89.5%. For the same compound, the viability, T/C (compound 0.3 µM) was 96.6% and 91% and 102%, the viability, T/C (compound 0.949 µM) was 96.9% and 87.3% and 106% and the viability, T/C (compound 3 µM) was 102% and 91.7% and 108%. For the same compound, the IC50 (curve of compound) was over 3 µM.
